Columns and labels:
field bindweed = assay: Test C postemergence field bindweed; format: in vivo, Convolvulus arvensis; conditions: 0 to 100 scale, 0 no effect, 100 complete control
In short: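 Visual ratings on a 0 to 100 scale, where 0 means no effect and 100 complete control, were made versus untreated controls roughly 14 to 21 days after postemergence treatment. Test compounds were formulated in a non-phytotoxic solvent mixture containing a surfactant.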

Alexandergrass = assay: Test D Alexandergrass; format: in vivo, Brachiaria plantaginea; conditions: Preemergence, 0 to 100 scale
In short: (§1)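 Scoring used a 0–100 visual injury scale, with 0 meaning no effect and 100 complete control, assessed 14–21 days after application alongside untreated pots. Preemergence treatments went onto sandy loam surfaces of separately potted seeds within a day of sowing.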

bermuda-grass = assay: Test D bermudagrass; format: in vivo, Cynodon dactylon; conditions: Preemergence, 0 to 100 scale
In short: as §1

common ragweed = assay: Test D common ragweed; format: in vivo, Ambrosia elatior; conditions: Preemergence, 0 to 100 scale
In short: as §1

common groundsel = assay: Test D common groundsel; format: in vivo, Senecio vulgaris; conditions: Preemergence, 0 to 100 scale
In short: as §1

dallisgrass = assay: Test D dallisgrass; format: in vivo, Paspalum dilatatum; conditions: Preemergence, 0 to 100 scale
In short: as §1

goosegrass = assay: Test D goosegrass; format: in vivo, Eleusine indica; conditions: Preemergence, 0 to 100 scale
In short: as §1

guineagrass = assay: Test D guineagrass; format: in vivo, Panicum maximum; conditions: Preemergence, 0 to 100 scale
In short: as §1

itchgrass = assay: Test D itchgrass; format: in vivo, Rottboellia exaltata; conditions: Preemergence, 0 to 100 scale
In short: as §1

Johnson grass = assay: Test D Johnson grass; format: in vivo, Sorghum halepense; conditions: Preemergence, 0 to 100 scale
In short: as §1

large crabgrass = assay: Test D large crabgrass; format: in vivo, Digitaria sanguinalis; conditions: Preemergence, 0 to 100 scale
In short: as §1

pitted morningglory = assay: Test D pitted morningglory; format: in vivo, Ipomoea lacunosa; conditions: Preemergence, 0 to 100 scale
In short: as §1

purple nutsedge = assay: Test D purple nutsedge; format: in vivo, Cyperus rotundus; conditions: Preemergence, 0 to 100 scale
In short: as §1

sandbur = assay: Test D sandbur; format: in vivo, Cenchrus echinatus; conditions: Preemergence, 0 to 100 scale
In short: as §1

tall mallow = assay: Test D tall mallow; format: in vivo, Malva sylvestris; conditions: Preemergence, 0 to 100 scale
In short: as §1

Green foxtail = assay: Test D green foxtail; format: in vivo
In short: as §1

[1] = Rate 64 g/ha, 0 no injury, 100 complete control
[2] = Rate 64 g/ha, Preemergence; 0 to 100 scale, 0 no injury, 100 complete control
[3] = Rate 125 g/ha, 0 no injury, 100 complete control
[4] = Rate 125 g/ha, Preemergence; 0 to 100 scale, 0 no injury, 100 complete control
[5] = Rate 500 g/ha, Preemergence; 0 to 100 scale
[6] = Rate 16 g/ha, 0 no injury, 100 complete control
[7] = Rate 32 g/ha, 0 no injury, 100 complete control

SMILES: Cc1ccc(N(C(=O)n2oc(=O)n(C(C)C)c2=O)C(C)C)cc1 [Compound 132]
- Plant response rating Field bindweed (field bindweed; Rate 140 g/ha): 0
- Plant response rating Field bindweed (field bindweed; Rate 280 g/ha): 0
- Plant response rating Field bindweed (field bindweed; Rate 560 g/ha): 40
- Plant response rating Field bindweed (field bindweed; Rate 1120 g/ha): 70
- Plant response rating, Alexandergrass (Alexandergrass; [1]): 98
- Plant response rating, Bermudagrass (bermuda-grass; [1]): 100
- Plant response rating, C. ragweed (common ragweed; [1]): 0
- Plant response rating, Com. groundsel (common groundsel; [1]): 0
- Plant response rating, Dallisgrass (dallisgrass; [1]): 98
- Plant response rating, Goosegrass (goosegrass; [1]): 98
- Plant response rating, Guineagrass (guineagrass; [1]): 85
- Plant response rating, Itchgrass (itchgrass; [1]): 10
- Plant response rating Johnsongrass (Johnson grass; [1]): 35
- Plant response rating Large crabgrass (large crabgrass; [1]): 100
- Plant response rating, P. morninglory (pitted morningglory; [1]): 0
- Purple nutsedge plant response rating (purple nutsedge; [1]): 0
- Sandbur plant response rating (sandbur; [1]): 0
- Tall Mallow plant response rating (tall mallow; [1]): 40
- Green foxtail plant response rating (Green foxtail; [2]): 100
- Plant response rating, Green foxtail (Green foxtail; [2]): 100

SMILES: CC(C)N(C(=O)n1oc(=O)n(Cc2ccccc2)c1=O)c1ccccc1 [Compound 94]
- Plant response rating Field bindweed (field bindweed; Rate 140 g/ha): 0
- Plant response rating Field bindweed (field bindweed; Rate 280 g/ha): 0
- Plant response rating Field bindweed (field bindweed; Rate 560 g/ha): 0
- Plant response rating Field bindweed (field bindweed; Rate 1120 g/ha): 0
- Plant response rating, Alexandergrass (Alexandergrass; [3]): 50
- Plant response rating, Alexandergrass (Alexandergrass; Rate 500 g/ha): 80
- Plant response rating, Bermudagrass (bermuda-grass; [3]): 90
- Plant response rating, Bermudagrass (bermuda-grass; Rate 500 g/ha): 100
- Plant response rating, C. ragweed (common ragweed; [3]): 0
- Plant response rating, C. ragweed (common ragweed; Rate 500 g/ha): 10
- Plant response rating, Com. groundsel (common groundsel; [3]): 75
- Plant response rating, Com. groundsel (common groundsel; Rate 500 g/ha): 100
- Plant response rating, Dallisgrass (dallisgrass; [3]): 98
- Plant response rating, Dallisgrass (dallisgrass; Rate 500 g/ha): 100
- Plant response rating, Goosegrass (goosegrass; [3]): 85
- Plant response rating, Goosegrass (goosegrass; Rate 500 g/ha): 100
- Plant response rating, Guineagrass (guineagrass; [3]): 0
- Plant response rating, Guineagrass (guineagrass; Rate 500 g/ha): 100
- Plant response rating, Itchgrass (itchgrass; [3]): 0
- Plant response rating, Itchgrass (itchgrass; Rate 500 g/ha): 40
- Plant response rating Johnsongrass (Johnson grass; [3]): 0
- Plant response rating Johnsongrass (Johnson grass; Rate 500 g/ha): 20
- Plant response rating Large crabgrass (large crabgrass; [3]): 98
- Plant response rating Large crabgrass (large crabgrass; Rate 500 g/ha): 100
- Plant response rating, P. morninglory (pitted morningglory; [3]): 0
- Plant response rating, P. morninglory (pitted morningglory; Rate 500 g/ha): 0
- Purple nutsedge plant response rating (purple nutsedge; [3]): 50
- Plant response rating, Purple nutsedge (purple nutsedge; Rate 500 g/ha): 50
- Sandbur plant response rating (sandbur; [3]): 20
- Plant response rating, Sandbur (sandbur; Rate 500 g/ha): 100
- Tall Mallow plant response rating (tall mallow; [3]): 0
- Plant response rating, Tall Mallow (tall mallow; Rate 500 g/ha): 20
- Green foxtail plant response rating (Green foxtail; [4]): 90
- Plant response rating, Green foxtail (Green foxtail; [4]): 90
- Plant response rating, Green foxtail (Green foxtail; [5]): 100

SMILES: CC(C)N(C(=O)n1oc(=O)n(C(C)C)c1=O)c1ccc(F)cc1F [Compound 109]
- Plant response rating Field bindweed (field bindweed; Rate 140 g/ha): 0
- Plant response rating Field bindweed (field bindweed; Rate 280 g/ha): 0
- Plant response rating Field bindweed (field bindweed; Rate 560 g/ha): 10
- Plant response rating Field bindweed (field bindweed; Rate 1120 g/ha): 10
- Plant response rating, Alexandergrass (Alexandergrass; [6]): 40
- Plant response rating, Alexandergrass (Alexandergrass; [7]): 90
- Plant response rating, Alexandergrass (Alexandergrass; [1]): 98
- Plant response rating, Alexandergrass (Alexandergrass; [3]): 100
- Plant response rating, Alexandergrass (Alexandergrass; Rate 250 g/ha): 100
- Plant response rating, Alexandergrass (Alexandergrass; Rate 500 g/ha): 100
- Plant response rating, Bermudagrass (bermuda-grass; [6]): 98
- Plant response rating, Bermudagrass (bermuda-grass; [7]): 100
- Plant response rating, Bermudagrass (bermuda-grass; [1]): 100
- Plant response rating, Bermudagrass (bermuda-grass; [3]): 100
- Plant response rating, Bermudagrass (bermuda-grass; Rate 250 g/ha): 100
- Plant response rating, Bermudagrass (bermuda-grass; Rate 500 g/ha): 100
- Plant response rating, C. ragweed (common ragweed; [6]): 0
- Plant response rating, C. ragweed (common ragweed; [7]): 0
- Plant response rating, C. ragweed (common ragweed; [1]): 10
- Plant response rating, C. ragweed (common ragweed; [3]): 10
- Plant response rating, C. ragweed (common ragweed; Rate 250 g/ha): 10
- Plant response rating, C. ragweed (common ragweed; Rate 500 g/ha): 55
- Plant response rating, Com. groundsel (common groundsel; [6]): 0
- Plant response rating, Com. groundsel (common groundsel; [7]): 0
- Plant response rating, Com. groundsel (common groundsel; [1]): 0
- Plant response rating, Com. groundsel (common groundsel; [3]): 0
- Plant response rating, Com. groundsel (common groundsel; Rate 250 g/ha): 0
- Plant response rating, Com. groundsel (common groundsel; Rate 500 g/ha): 0
- Plant response rating, Dallisgrass (dallisgrass; [6]): 40
- Plant response rating, Dallisgrass (dallisgrass; [7]): 98
- Plant response rating, Dallisgrass (dallisgrass; [1]): 100
- Plant response rating, Dallisgrass (dallisgrass; [3]): 100
- Plant response rating, Dallisgrass (dallisgrass; Rate 250 g/ha): 100
- Plant response rating, Dallisgrass (dallisgrass; Rate 500 g/ha): 100
- Plant response rating, Goosegrass (goosegrass; [6]): 85
- Plant response rating, Goosegrass (goosegrass; [7]): 98
- Plant response rating, Goosegrass (goosegrass; [1]): 100
- Plant response rating, Goosegrass (goosegrass; [3]): 100
- Plant response rating, Goosegrass (goosegrass; Rate 250 g/ha): 100
- Plant response rating, Goosegrass (goosegrass; Rate 500 g/ha): 100
- Plant response rating, Guineagrass (guineagrass; [6]): 90
- Plant response rating, Guineagrass (guineagrass; [7]): 100
- Plant response rating, Guineagrass (guineagrass; [1]): 100
- Plant response rating, Guineagrass (guineagrass; [3]): 100
- Plant response rating, Guineagrass (guineagrass; Rate 250 g/ha): 100
- Plant response rating, Guineagrass (guineagrass; Rate 500 g/ha): 100
- Plant response rating, Itchgrass (itchgrass; [6]): 0
- Plant response rating, Itchgrass (itchgrass; [7]): 65
- Plant response rating, Itchgrass (itchgrass; [1]): 75
- Plant response rating, Itchgrass (itchgrass; [3]): 75
- Plant response rating, Itchgrass (itchgrass; Rate 250 g/ha): 100
- Plant response rating, Itchgrass (itchgrass; Rate 500 g/ha): 100
- Plant response rating Johnsongrass (Johnson grass; [6]): 0
- Plant response rating Johnsongrass (Johnson grass; [7]): 0
- Plant response rating Johnsongrass (Johnson grass; [1]): 75
- Plant response rating Johnsongrass (Johnson grass; [3]): 98
- Plant response rating Johnsongrass (Johnson grass; Rate 250 g/ha): 100
- Plant response rating Johnsongrass (Johnson grass; Rate 500 g/ha): 100
- Plant response rating Large crabgrass (large crabgrass; [6]): 85
- Plant response rating Large crabgrass (large crabgrass; [7]): 100
- Plant response rating Large crabgrass (large crabgrass; [1]): 100
- Plant response rating Large crabgrass (large crabgrass; [3]): 100
- Plant response rating Large crabgrass (large crabgrass; Rate 250 g/ha): 100
- Plant response rating Large crabgrass (large crabgrass; Rate 500 g/ha): 100
- Plant response rating, P. morninglory (pitted morningglory; [6]): 0
- Plant response rating, P. morninglory (pitted morningglory; [7]): 0
- Plant response rating, P. morninglory (pitted morningglory; [1]): 0
- Plant response rating, P. morninglory (pitted morningglory; [3]): 65
- Plant response rating, P. morninglory (pitted morningglory; Rate 250 g/ha): 85
- Plant response rating, P. morninglory (pitted morningglory; Rate 500 g/ha): 100
- Plant response rating, Purple nutsedge (purple nutsedge; [6]): 0
- Plant response rating, Purple nutsedge (purple nutsedge; [7]): 0
- Purple nutsedge plant response rating (purple nutsedge; [1]): 40
- Purple nutsedge plant response rating (purple nutsedge; [3]): 40
- Plant response rating, Purple nutsedge (purple nutsedge; Rate 250 g/ha): 75
- Plant response rating, Purple nutsedge (purple nutsedge; Rate 500 g/ha): 85
- Plant response rating, Sandbur (sandbur; [6]): 0
- Plant response rating, Sandbur (sandbur; [7]): 0
- Sandbur plant response rating (sandbur; [1]): 98
- Sandbur plant response rating (sandbur; [3]): 100
- Plant response rating, Sandbur (sandbur; Rate 250 g/ha): 100
- Plant response rating, Sandbur (sandbur; Rate 500 g/ha): 100
- Plant response rating, Tall Mallow (tall mallow; [6]): 0
- Plant response rating, Tall Mallow (tall mallow; [7]): 20
- Tall Mallow plant response rating (tall mallow; [1]): 60
- Tall Mallow plant response rating (tall mallow; [3]): 85
- Plant response rating, Tall Mallow (tall mallow; Rate 250 g/ha): 98
- Plant response rating, Tall Mallow (tall mallow; Rate 500 g/ha): 100
- Plant response rating, Green foxtail (Green foxtail; Preemergence; Rate 16 g/ha; 0 to 100 scale, 0 no injury, 100 complete control): 98
- Plant response rating, Green foxtail (Green foxtail; Preemergence; Rate 32 g/ha; 0 to 100 scale, 0 no injury, 100 complete control): 100
- Plant response rating, Green foxtail (Green foxtail; Rate 16 g/ha; Preemergence; 0 to 100 scale, 0 no injury, 100 complete control): 98
- Plant response rating, Green foxtail (Green foxtail; Rate 32 g/ha; Preemergence; 0 to 100 scale, 0 no injury, 100 complete control): 0
- Green foxtail plant response rating (Green foxtail; [2]): 100
- Plant response rating, Green foxtail (Green foxtail; [2]): 100
- Green foxtail plant response rating (Green foxtail; [4]): 100
- Plant response rating, Green foxtail (Green foxtail; [4]): 100
- Plant response rating, Green foxtail (Green foxtail; Rate 250 g/ha; Preemergence; 0 to 100 scale): 100
- Plant response rating, Green foxtail (Green foxtail; [5]): 100
